# Experimental data: US20080138838A1, “DIAGNOSIS OF ZD1839 RESISTANT TUMORS” (CEDARS-SINAI MEDICAL CENTER, priority 2002, published 2008)
# System: androgen-independent human cell line CWR22R grown as a xenograft
# Assay: ZD1839 resistant xenograft model of human prostate cancer
# Format: in vivo
# Experimental: The androgen-independent human cell line CWR22R was grown as a xenograft in nude mice. See Nagabhushan, et al. (1996) Cancer Res. 56:3042-3046; Agus, et al. (1999) J. Nat'l Cancer Inst. 91:1869-1876; and Bubendorf, et al. (1999) J. Nat'l Cancer Inst. 91:1758-1764. […] The mice were treated continuously with sub-therapeutic doses, and the tumors were allowed to grow for 3-4 weeks, before surgical removal of the tumors. The tumor from an individual mouse was then minced, and a small portion was then injected into a healthy nude mouse, establishing a second passage of the tumor. This mouse was then treated continuously with the same sub-therapeutic dose of ZD1839. This process was repeated 10 times, and a portion of each generation of xenograft tumor was collected. […] RNA from each generation of tumor was then isolated, and individual mRNA species were quantified using a custom Affymetrix GENECHIP® (DNA microarray chip) oligonucleotide microarray (Eos Hu03), with probes to interrogate approximately 46,000 unique mRNA transcripts. […] The gene products of the genes listed in Tables 1A-C may be particularly useful as targets in the treatment of ZD1839 resistant tumors derived from prostate cancer, small cell lung cancer, breast cancer, glioblastoma, cervical cancer, colon cancer, head and neck cancer, renal cell carcinoma, and pancreatic cancer. Prostate cancer includes epithelial neoplasms (e.g., adenocarcinoma, small cell tumors, transitional cell carcinoma, carcinoma in situ, and basal cell carcinoma), carcinosarcoma, non-epithelial neoplasms (e.g., mesenchymal and lymphoma), germ cell tumors, prostatic intraepithelial neoplasia (PIN), hormone independent prostate cancer, and metastatic prostate cancer (e.g., to bone, lung, or lymph node).
compound,measurement,setting,value
COc1cc2ncnc(Nc3ccc(F)c(Cl)c3)c2cc1OCCCN1CCOCC1 [ZD1839],response of xenograft tumors to therapeutic doses of ZD1839,"end of the process (passaging repeated 10 times under continuous sub-therapeutic doses, nude mice)",fully resistant to therapeutic doses
same,response of xenograft tumors to therapeutic doses of ZD1839,initially (parental CWR22R xenograft in nude mice),sensitive to therapeutic doses
same,resistance of xenograft tumors to therapeutic doses of ZD1839,successive passages in nude mice under continuous sub-therapeutic doses,increased with each generation
